According to ChEMBL document CHEMBL3885881, “DrugMatrix”:

Organism: Rattus norvegicus
Experiment: DrugMatrix - Regimen: Daily Repeat
Type: toxicity, organism-based, Sprague-Dawley
Parameters: regimen Daily Repeat, gender Male, age 6-8 weeks
Conditions: in vivo, po, route oral GAVAGE, vehicle .5 % CMC; for ABSOLUTE BASOPHIL / ABSOLUTE EOSINOPHIL / ABSOLUTE LYMPHOCYTE / ABSOLUTE MONOCYTE / ABSOLUTE SEGMENTED NEUTROPHIL / BASOPHIL / EOSINOPHIL / ERYTHROCYTE COUNT / HEMATOCRIT / HEMOGLOBIN / LEUKOCYTE COUNT / LYMPHOCYTE / MEAN CORPUSCULAR HEMOGLOBIN / MEAN CORPUSCULAR HEMOGLOBIN CONCENTRATION / MEAN CORPUSCULAR VOLUME / MONOCYTE / NEUTROPHIL / NUCLEATED RED BLOOD CELLS / PLATELET COUNT: tissue Blood; for ALANINE AMINOTRANSFERASE / ALBUMIN / ALKALINE PHOSPHATASE / ASPARTATE AMINOTRANSFERASE / BLOOD UREA NITROGEN / CARBON DIOXIDE / CHLORIDE / CHOLESTEROL / CREATINE PHOSPHOKINASE / CREATININE / GLUCOSE / LACTATE DEHYDROGENASE / LIPASE / PHOSPHORUS / POTASSIUM / SODIUM / TOTAL BILIRUBIN / TOTAL PROTEIN / URIC ACID: tissue Plasma
[1] = 100 mg/kg, 120 h, dose level Low, time 5 day
[2] = 2500 mg/kg, 72 h, dose level High, time 3 day
[3] = 2500 mg/kg, 120 h, dose level High, time 5 day

Structure (SMILES): NC(=O)CN1CCCC1=O
- ABSOLUTE BASOPHIL [1]: 0 CELLS/uL
- ABSOLUTE EOSINOPHIL [1]: 42 CELLS/uL
- ABSOLUTE LYMPHOCYTE [1]: 9826.67 CELLS/uL
- ABSOLUTE MONOCYTE [1]: 141.33 CELLS/uL
- ABSOLUTE SEGMENTED NEUTROPHIL [1]: 823.33 CELLS/uL
- BASOPHIL [1]: 0%
- EOSINOPHIL [1]: 0.33%
- ERYTHROCYTE COUNT [1]: 5.31 x10E6/uL
- HEMATOCRIT [1]: 34.1%
- HEMOGLOBIN [1]: 13.87 G/DL
- LEUKOCYTE COUNT [1]: 10.83 x10E3/uL
- LYMPHOCYTE [1]: 90.67%
- MEAN CORPUSCULAR HEMOGLOBIN [1]: 26.1 pg
- MEAN CORPUSCULAR HEMOGLOBIN CONCENTRATION [1]: 40.7 G/DL
- MEAN CORPUSCULAR VOLUME [1]: 64.2 fL
- MONOCYTE [1]: 1.33%
- NEUTROPHIL [1]: 7.67%
- NUCLEATED RED BLOOD CELLS [1]: 0 /100WBC
- PLATELET COUNT [1]: 1439.67 x10E3/uL
- ALANINE AMINOTRANSFERASE [1]: 57.33 u/L
- ALBUMIN [1]: 4.37 G/DL
- ALKALINE PHOSPHATASE [1]: 345.67 u/L
- ASPARTATE AMINOTRANSFERASE [1]: 81.33 u/L
- BLOOD UREA NITROGEN [1]: 14 mg/dL
- CARBON DIOXIDE [1]: 31 mmol/L
- CHLORIDE [1]: 101.33 MEQ/L
- CHOLESTEROL [1]: 79 mg/dL
- CREATINE PHOSPHOKINASE [1]: 221.33 u/L
- CREATININE [1]: 0.2 mg/dL
- GLUCOSE [1]: 137.33 mg/dL
- LACTATE DEHYDROGENASE [1]: 190.33 u/L
- LIPASE [1]: 10 u/L
- PHOSPHORUS [1]: 12 mg/dL
- POTASSIUM [1]: 6.54 MEQ/L
- SODIUM [1]: 144.03 MEQ/L
- TOTAL BILIRUBIN [1]: 0.23 mg/dL
- TOTAL PROTEIN [1]: 6.17 G/DL
- URIC ACID [1]: 1.2 mg/dL
- ABSOLUTE BASOPHIL [2]: 0 CELLS/uL
- ABSOLUTE EOSINOPHIL [2]: 0 CELLS/uL
- ABSOLUTE LYMPHOCYTE [2]: 13503 CELLS/uL
- ABSOLUTE MONOCYTE [2]: 41.67 CELLS/uL
- ABSOLUTE SEGMENTED NEUTROPHIL [2]: 1822 CELLS/uL
- BASOPHIL [2]: 0%
- EOSINOPHIL [2]: 0%
- ERYTHROCYTE COUNT [2]: 5.25 x10E6/uL
- HEMATOCRIT [2]: 34.27%
- HEMOGLOBIN [2]: 13.27 G/DL
- LEUKOCYTE COUNT [2]: 15.37 x10E3/uL
- LYMPHOCYTE [2]: 88.33%
- MEAN CORPUSCULAR HEMOGLOBIN [2]: 25.33 pg
- MEAN CORPUSCULAR HEMOGLOBIN CONCENTRATION [2]: 38.77 G/DL
- MEAN CORPUSCULAR VOLUME [2]: 65.3 fL
- MONOCYTE [2]: 0.33%
- NEUTROPHIL [2]: 11.33%
- NUCLEATED RED BLOOD CELLS [2]: 0 /100WBC
- PLATELET COUNT [2]: 1334.33 x10E3/uL
- ALANINE AMINOTRANSFERASE [2]: 49 u/L
- ALBUMIN [2]: 3.97 G/DL
- ALKALINE PHOSPHATASE [2]: 347.33 u/L
- ASPARTATE AMINOTRANSFERASE [2]: 74 u/L
- BLOOD UREA NITROGEN [2]: 20.67 mg/dL
- CARBON DIOXIDE [2]: 31 mmol/L
- CHLORIDE [2]: 102.67 MEQ/L
- CHOLESTEROL [2]: 67.67 mg/dL
- CREATINE PHOSPHOKINASE [2]: 351.33 u/L
- CREATININE [2]: 0.18 mg/dL
- GLUCOSE [2]: 147.33 mg/dL
- LACTATE DEHYDROGENASE [2]: 239 u/L
- LIPASE [2]: 9.67 u/L
- PHOSPHORUS [2]: 12.57 mg/dL
- POTASSIUM [2]: 6.21 MEQ/L
- SODIUM [2]: 146 MEQ/L
- TOTAL BILIRUBIN [2]: 0.2 mg/dL
- TOTAL PROTEIN [2]: 5.7 G/DL
- URIC ACID [2]: 1.4 mg/dL
- ABSOLUTE BASOPHIL [3]: 0 CELLS/uL
- ABSOLUTE EOSINOPHIL [3]: 37.33 CELLS/uL
- ABSOLUTE LYMPHOCYTE [3]: 8603 CELLS/uL
- ABSOLUTE MONOCYTE [3]: 37.33 CELLS/uL
- ABSOLUTE SEGMENTED NEUTROPHIL [3]: 1055.67 CELLS/uL
- BASOPHIL [3]: 0%
- EOSINOPHIL [3]: 0.33%
- ERYTHROCYTE COUNT [3]: 5.53 x10E6/uL
- HEMATOCRIT [3]: 34.87%
- HEMOGLOBIN [3]: 14.13 G/DL
- LEUKOCYTE COUNT [3]: 9.73 x10E3/uL
- LYMPHOCYTE [3]: 88.67%
- MEAN CORPUSCULAR HEMOGLOBIN [3]: 25.6 pg
- MEAN CORPUSCULAR HEMOGLOBIN CONCENTRATION [3]: 40.53 G/DL
- MEAN CORPUSCULAR VOLUME [3]: 63.17 fL
- MONOCYTE [3]: 0.33%
- NEUTROPHIL [3]: 10.67%
- NUCLEATED RED BLOOD CELLS [3]: 0 /100WBC
- PLATELET COUNT [3]: 1291.33 x10E3/uL
- ALANINE AMINOTRANSFERASE [3]: 61.33 u/L
- ALBUMIN [3]: 4.27 G/DL
- ALKALINE PHOSPHATASE [3]: 359.33 u/L
- ASPARTATE AMINOTRANSFERASE [3]: 86.33 u/L
- BLOOD UREA NITROGEN [3]: 18.33 mg/dL
- CARBON DIOXIDE [3]: 28.67 mmol/L
- CHLORIDE [3]: 101.67 MEQ/L
- CHOLESTEROL [3]: 64 mg/dL
- CREATINE PHOSPHOKINASE [3]: 310 u/L
- CREATININE [3]: 0.16 mg/dL
- GLUCOSE [3]: 160.33 mg/dL
- LACTATE DEHYDROGENASE [3]: 149.33 u/L
- LIPASE [3]: 7.33 u/L
- PHOSPHORUS [3]: 12.07 mg/dL
- POTASSIUM [3]: 5.7 MEQ/L
- SODIUM [3]: 146.23 MEQ/L
- TOTAL BILIRUBIN [3]: 0.17 mg/dL
- TOTAL PROTEIN [3]: 6.17 G/DL
- URIC ACID [3]: 1.67 mg/dL
